Assay: xn = mol fraction of the nth substance listed

[2H]O[2H] + Cc1cccnc1
viscosity [mPa·s], 101 kPa
Conditions | x2 = 0.0233 | x2 = 0.05084 | x2 = 0.08428 | x2 = 0.1255
297.15 K | 1.471 | 1.954 | 2.315 | 2.706
298.15 K | 1.433 | 1.899 | 2.249 | 2.627
299.15 K | 1.389 | 1.846 | 2.189 | 2.558
300.15 K | 1.355 | 1.794 | 2.122 | 2.483
301.15 K | 1.32 | 1.751 | 2.059 | 2.401
302.15 K | 1.284 | 1.7 | 1.999 | 2.33
303.15 K | 1.254 | 1.656 | 1.949 | 2.267
304.15 K | 1.225 | 1.615 | 1.893 | 2.2
305.15 K | 1.191 | 1.578 | 1.843 | 2.14
306.15 K | 1.165 | 1.538 | 1.793 | 2.083
307.15 K | 1.136 | 1.502 | 1.751 | 2.033
308.15 K | 1.104 | 1.467 | 1.708 | 1.981
309.15 K | 1.082 | 1.434 | 1.665 | 1.932
310.15 K | 1.055 | 1.404 | 1.631 | 1.889
311.15 K | 1.034 | 1.371 | 1.589 | 1.841
312.15 K | 1.007 | 1.344 | 1.555 | 1.804
313.15 K | 0.984 | 1.32 | 1.522 | 1.765

C=CC#N + ClC(Cl)(Cl)Cl
viscosity [mPa·s], 101 kPa
Conditions | 293.15 K | 298.15 K | 303.15 K | 313.15 K | 323.15 K
x1 = 0.007 | 0.988 | 0.911 | 0.847 | 0.749 | 0.671
x1 = 0.028 | 0.979 | 0.903 | 0.841 | 0.772 | 0.695
x1 = 0.126 | 0.853 | 0.783 | 0.721 | 0.661 | 0.616

C[N+](CCO)(CCO)CCO.[Cl-] + NC(N)=O
100 kPa, x1 = 0.5
Conditions | viscosity [mPa·s]
293.15 K | 6026
298.15 K | 3662
303.15 K | 2352
308.15 K | 1540
313.15 K | 1026
318.15 K | 717
323.15 K | 505

CC(=O)[O-].CCCC[NH3+] + O
Conditions | viscosity [mPa·s]
293.15 K, 101 kPa, x1 = 0.4013 | 53.35
